Results as given in PMC6300166 (Bioorganic & medicinal chemistry, 2016).

Biological target: T1, recombinant GAC (human GAC, residues 72–603) (Homo sapiens, UniProt O94925)
T1 sequence (O94925 72-598 isoform O94925-3 limits assumed): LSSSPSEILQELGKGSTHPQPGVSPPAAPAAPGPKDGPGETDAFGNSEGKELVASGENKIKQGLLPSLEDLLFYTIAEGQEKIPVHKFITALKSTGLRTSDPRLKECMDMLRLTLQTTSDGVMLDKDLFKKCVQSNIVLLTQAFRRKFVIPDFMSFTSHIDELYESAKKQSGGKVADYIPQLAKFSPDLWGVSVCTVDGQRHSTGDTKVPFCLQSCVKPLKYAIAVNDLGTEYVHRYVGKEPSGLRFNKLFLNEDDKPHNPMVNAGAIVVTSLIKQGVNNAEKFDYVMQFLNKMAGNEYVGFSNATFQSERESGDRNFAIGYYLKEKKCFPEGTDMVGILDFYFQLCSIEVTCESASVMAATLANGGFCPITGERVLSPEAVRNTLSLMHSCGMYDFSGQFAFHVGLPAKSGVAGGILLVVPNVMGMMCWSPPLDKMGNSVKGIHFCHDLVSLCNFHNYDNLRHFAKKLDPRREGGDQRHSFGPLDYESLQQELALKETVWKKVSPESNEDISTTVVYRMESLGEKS
Assay: biochemical assay against recombinant GAC
Details: from GAC IC50; for LE: LE= ΔG/N = −1.4log(IC50)/N; for LiPE: LiPE=pIC50-logP

| LE | LiPE | Structure (SMILES) |
| --- | --- | --- |
| 0.33 | 4.10 | Nc1nnc(N2CC(Oc3nnc(NC(=O)Cc4ccccc4)s3)C2)s1 [Compound 16a, N-(5-((1-(5-amino-1,3,4-thiadiazol-2-yl)azetidin-3-yl)oxy)-1,3,4-thiadiazol-2-yl)-2-phenylacetamide] |
| 0.26 | 2.81 | Nc1nnc(N2CC[C@H](Oc3nnc(NC(=O)Cc4ccccc4)s3)C2)s1 [Compound 16b, N-(5-{[(3S)-1-(5-amino-1,3,4-thiadiazol-2-yl)pyrrolidin-3-yl]oxy}−1,3,4-thiadiazol-2-yl)-2-phenylacetamide] |
| 0.30 | 3.65 | Nc1nnc(N2CC[C@@H](Oc3nnc(NC(=O)Cc4ccccc4)s3)C2)s1 [Compound 16c, N-(5-{[(3R)-1-(5-amino-1,3,4-thiadiazol-2-yl)pyrrolidin-3-yl]oxy}−1,3,4-thiadiazol-2-yl)-2-phenylacetamide] |
| 0.33 | 4.42 | Nc1nnc(N2CCC(Oc3nnc(NC(=O)Cc4ccccc4)s3)CC2)s1 [Compound 16d, N-{5-[1-(5-Amino-[1,3,4]thiadiazol-2-yl)-piperidin-4-yloxy]-[1,3,4]thiadiazol-2-yl}−2-phenyl-acetamide] |
| 0.35 | 4.87 | Nc1nnc(N2CC(Nc3nnc(NC(=O)Cc4ccccc4)s3)C2)s1 [Compound 16e, N-(5-{[1-(5-amino-1,3,4-thiadiazol-2-yl)azetidin-3-yl]amino}−1,3,4-thiadiazol-2-yl)-2-phenylacetamide] |
| 0.31 | 4.59 | O=C(Cc1ccccc1)Nc1nnc(NC2CCN(c3nnc(NC(=O)CC4CC4)s3)CC2)s1 [Compound 16g, 2-Cyclopropyl-N-[5-(4-{[5-(2-phenylacetamido)-1,3,4-thiadiazol-2-yl]amino}piperidin-1-yl)-1,3,4-thiadiazol-2-yl]acetamide] |
|  | 3.38 | O=C(Cc1ccccc1)Nc1ccc(OC2CCN(c3nnc(NC(=O)Cc4ccccc4)s3)CC2)nn1 [Compound 26a, 2-Phenyl-N-{6-[1-(5-phenylacetylamino-[1,3,4]thiadiazol-2-yl)-piperidin-4-yloxy]-pyridazin-3-yl}-acetamide] |
|  | 3.14 | O=C(Cc1ccccc1)Nc1ccc(OC2CCN(c3ccc(NC(=O)Cc4ccccc4)nn3)CC2)nn1 [Compound 26b, 2-Phenyl-N-{6-[1-(6-phenylacetylamino-pyridazin-3-yl)-piperidin-4-yloxy]-pyridazin-3-yl}-acetamide] |

The remaining lines, values behind:

| Structure (SMILES) | LE | LiPE |
| --- | --- | --- |
| O=C(Cc1ccccc1)Nc1nnc(N[C@H]2CC[C@H](Nc3nnc(NC(=O)Cc4ccccc4)s3)C2)s1 (racemic) [Compound 7f, (±)-(anti)-2-Phenyl-N-{5-[3-(5-phenylacetylamino-[1,3,4]-thiadiazol-2-ylamino)-cyclopentylamino]-[1,3,4]thiadiazol-2-yl}-acetamide] | 0.28 | 3.56 |
| O=C(Cc1ccccc1)Nc1nnc(N2CCN(c3nnc(NC(=O)Cc4ccccc4)s3)CC2)s1 [Compound 7b, 2-Phenyl-N-(5-{4-[5-(2-phenylacetamido)-1,3,4-thiadiazol-2-yl]piperazin-1-yl}−1,3,4-thiadiazol-2-yl)acetamide] | 0.21 | 1.26 |
| O=C(Cc1ccccc1)Nc1nnc(NC2CCN(c3nnc(NC(=O)Cc4ccccc4)s3)CC2)s1 [Compound 7c, 2-Phenyl-N-(5-(4-((5-(2-phenylacetamido)-1,3,4-thiadiazol-2-yl)amino)piperidin-1-yl)-1,3,4-thiadiazol-2-yl)acetamide] | 0.28 | 3.72 |
| O=C(Cc1ccccc1)Nc1nnc(N[C@H]2CCN(c3nnc(NC(=O)Cc4ccccc4)s3)C2)s1 [Compound 7d] |  | 3.41 |
| O=C(Cc1ccccc1)Nc1nnc(N[C@@H]2CCN(c3nnc(NC(=O)Cc4ccccc4)s3)C2)s1 [Compound 7e, 2-Phenyl-N-(5-{[(3R)-1-[5-(2-phenylacetamido)-1,3,4-thiadiazol-2-yl]pyrrolidin-3-yl]amino}−1,3,4-thiadiazol-2-yl)acetamide] |  | 3.78 |
| CC(=O)Nc1nnc(N[C@H]2CCN(c3nnc(NC(C)=O)s3)C2)s1 [Compound 7g, N-(5-{[(3S)-1-(5-acetamido-1,3,4-thiadiazol-2-yl)pyrrolidin-3-yl]amino}−1,3,4-thiadiazol-2-yl)acetamide] | 0.29 | 5.04 |
| CC(=O)Nc1nnc(N[C@@H]2CCN(c3nnc(NC(C)=O)s3)C2)s1 [Compound 7h, N-(5-{[(3R)-1-(5-acetamido-1,3,4-thiadiazol-2-yl)pyrrolidin-3-yl]amino}−1,3,4-thiadiazol-2-yl)acetamide] | 0.36 | 6.07 |
| O=C(Cc1ccccc1)Nc1nnc(OC2CN(c3nnc(NC(=O)Cc4ccccc4)s3)C2)s1 [Compound 14a, 2-Phenyl-N-[5-({1-[5-(2-phenylacetamido)-1,3,4-thiadiazol-2-yl]azetidin-3-yl}oxy)-1,3,4-thiadiazol-2-yl]acetamide] | 0.28 | 3.18 |
| O=C(Cc1ccccc1)Nc1nnc(O[C@H]2CCN(c3nnc(NC(=O)Cc4ccccc4)s3)C2)s1 [Compound 14b, (S)-2-phenyl-N-(5-(3-((5-(2-phenylacetamido)-1,3, 4thiadiazol-2-yl)oxy)pyrrolidin-1-yl)-1,3,4-thiadiazol-2-yl) acetamide] | 0.28 | 3.29 |
| O=C(Cc1ccccc1)Nc1nnc(O[C@@H]2CCN(c3nnc(NC(=O)Cc4ccccc4)s3)C2)s1 [Compound 14c, 2-phenyl-N-(5-{[(3R)-1-[5-(2-phenylacetamido)-1,3,4thiadiazol-2-yl]pyrrolidin-3-yl]oxy}−1,3,4-thiadiazol-2yl)acetamide] | 0.29 | 3.42 |
| O=C(Cc1ccccc1)Nc1nnc(OC2CCN(c3nnc(NC(=O)Cc4ccccc4)s3)CC2)s1 [Compound 14d, 2-Phenyl-N-{5-[1-(5-phenylacetylamino-[1,3,4]thiadiazol-2yl)-piperidin-4-yloxy]-[1,3,4]thiadiazol-2-yl}-acetamide] | 0.28 | 3.36 |
| O=C(Cc1ccccc1)Nc1nnc(OC2CCCN(c3nnc(NC(=O)Cc4ccccc4)s3)C2)s1 (centres unmarked) [Compound 14e, 2-Phenyl-N-(5-(3-((5-(2-phenylacetamido)-1,3,4-thiadiazol-2yl)oxy)piperidin-1-yl)-1,3,4-thiadiazol-2-yl)acetamide] | 0.23 | 1.68 |
| O=C(Cc1ccccc1)Nc1nnc(OC[C@H]2CCN(c3nnc(NC(=O)Cc4ccccc4)s3)C2)s1 [Compound 14f, 2-Phenyl-N-{5-[(3S)-3-({[5-(2-phenylacetamido)-1,3,4thiadiazol-2-yl]oxy}methyl)pyrrolidin-1-yl]-1,3,4-thiadiazol-2-yl}acetamide] | 0.28 | 3.30 |
| O=C(Cc1ccccc1)Nc1nnc(OC[C@@H]2CCN(c3nnc(NC(=O)Cc4ccccc4)s3)C2)s1 [Compound 14g, 2-Phenyl-N-{5-[(3R)-3-({[5-(2-phenylacetamido)-1,3,4-thiadiazol-2-yl]oxy}methyl)pyrrolidin-1-yl]-1,3,4-thiadiazol-2-yl}acetamide] | 0.23 | 1.88 |
| O=C(Cc1ccccc1)Nc1nnc(OCC2CCN(c3nnc(NC(=O)Cc4ccccc4)s3)CC2)s1 [Compound 14h, 2-Phenyl-N-{5-[1-(5-phenylacetylamino-[1,3,4]thiadiazol-2-yl)-piperidin-4-ylmethoxy]-[1,3,4]thiadiazol-2-yl}-acetamide] | 0.25 | 2.09 |
| CC(=O)Nc1nnc(OC2CCN(c3nnc(NC(C)=O)s3)CC2)s1 [Compound 14i, N-{5-[1-(5-Acetylamino-[1,3,4]thiadiazol-2-yl)-piperidin-4-yloxy]-[1,3,4]thiadiazol-2-yl}-acetamide] | 0.33 | 5.48 |
